Literature values as cited in patent US20160361342A1, “USE OF ALGINATE OLIGOMERS IN THE TREATMENT OF CYSTIC FIBROSIS AND OTHER CONDITIONS ASSOCIATED WITH DEFECTIVE CFTR ION CHANNEL FUNCTION” (ALGIPHARAMA AS, priority 2014, published 2016).

Tested on: ileum explants from mutant mice
Details: apical medium supplemented with sodium bicarbonate at levels predicted to be reached by wild type CFTR

## O=C([O-])O.[Na+] [sodium bicarbonate]
  attached mucus phenotype: can be reversed
